{"source": "patent US4950647A", "about": "“T cell immunopotentiator” (Nucleic Acid Research Institute, priority 1988, dated 1990)", "key": {"[1]": {"system": "human lymphocytes (peripheral blood mononuclear cells)", "experiment": "Mitogenic activity (3H-thymidine incorporation)", "format": "cell-based", "procedure": "(§1) Peripheral blood mononuclear cells were isolated from heparinized peripheral blood of normal healthy donors as described in Sharma, B. and S. Gupta, \"Antigen-specific primary cytotoxic T lymphocyte response in acquired immune deficiency syndrome (AIDS) and AIDS related complex\", Clin. Exp. Immunol., 62:296, 1985. Briefly, blood was diluted 1:1 with Hanks balanced salt solution (HBSS). Peripheral blood mononuclear cells were separated on a Ficoll-Hypaque gradient. The peripheral blood mononuclear cells recovered from the interface were washed three times with HBSS and resuspended in RPMI-1640 containing 100 U/ml penicillin, 100 μg/ml streptomycin 2mM L-glutamine (GIBCO, Grand Island, N.Y.), and 10% heat-inactivated pooled A serum (Irvine Scientific, Irvine, Calif.), hereafter referred as complete medium (CM).\nThe ability of 6-amino-(2-deoxy-α-D-erythro-pentofuranosyl)-imidazo[4,5,-C]pyridin- 4-one to activate lymphocytes was determined by culturing the cells with and without this compound. Peripheral blood mononuclear cells (1×10^5 /0.2 ml) were cultures in 96 well microtiter plates (Corning, N.Y.) for 72-96 hrs at 37° C. in 5% CO2 humid atmosphere and then for an additional 16 hr in the presence of 1 μCi/well [^3 H] thymidine (ICN Pharmaceuticals, Inc., Irvine, Calif.). Cells were harvested on glass fiber filter paper using a cell harvester (Skatron, Lier, Norway). The radioactivity was measured in a scintillation counter after suspending the dried filter in scintillation fluid.\nTo determine whether 6-amino-(2-deoxy-α-D-erythro-pentofuranosyl)-imidazo[4,5,-C]pyridin- 4-one directly activates lymphocytes to proliferate, peripheral blood mononuclear cells were cultured with or without this compound as described in the above methods section."}, "[2]": {"system": "B cells (human peripheral blood mononuclear cells)", "experiment": "Staphylococcus aureus cowan (SAC) induced B cell proliferation", "format": "cell-based", "parameters": "3H-thymidine incorporation: unit not given here", "procedure": "as §1\nPeripheral blood mononuclear cells (1×10^5 /0.2 ml/well) were incubated with different concentrations of Staphylococcus aureus cowan (1:[…] and 1:10,000 dilutions) in the presence and absence of 6-amino-(2-deoxy-α-D-erythro-pentofuranosyl)-imidazo[4,5,-C]pyridin- 4-one for 4 days. The cultures were pulsed with [^3 H]-thymidine and then the incorporation of [^3 H]thymidine was measured.\nTo further evaluate the effect on B cell response, human peripheral blood mononuclear cells were cultured with Staphylococcus aureus cowan in the presence and absence of 6-amino-(2-deoxy-α-D-erythro-pentofuranosyl)-imidazo[4,5,-C]pyridin- 4-one."}, "[3]": {"settings": "Revankar et al. 1984; cited from earlier work"}}, "note": "“Also recorded” adds a separate entry of the source.", "data": [{"molecule": "Nc1cc2c(ncn2[C@@H]2C[C@H](O)[C@@H](CO)O2)c(O)n1", "note": "[Test Compound, 6-amino-1-(2-deoxy-α-D-erythro-pentofuranosyl)imidazo[4,5-C]-pyridin-4-one]", "values": [{"measurement": "increase in the proliferation of peripheral blood mononuclear cells", "setting": "[1]; 0.006 mM to 0.4 mM, several donors", "result": "no significant increase"}, {"measurement": "stimulation of lymphocytes to proliferate", "setting": "[1]; 1 mM", "result": "failed to stimulate lymphocytes to proliferate"}, {"measurement": "direct stimulation of lymphocytes to proliferate", "setting": "[1]; by itself", "result": "unable to directly stimulate lymphocytes to proliferate"}, {"measurement": "3H-thymidine incorporation", "setting": "[1]; donor 1, 0.006 mM", "result": "212 ± 96", "unit": "Counts per minute"}, {"measurement": "3H-thymidine incorporation", "setting": "[1]; donor 1, 0.025 mM", "result": "494 ± 267", "unit": "Counts per minute"}, {"measurement": "3H-thymidine incorporation", "setting": "[1]; donor 1, 0.050 mM", "result": "306 ± 106", "unit": "Counts per minute"}, {"measurement": "3H-thymidine incorporation", "setting": "[1]; donor 1, 0.2 mM", "result": "246 ± 99", "unit": "Counts per minute"}, {"measurement": "3H-thymidine incorporation", "setting": "[1]; donor 1, 0.4 mM", "result": "320 ± 46", "unit": "Counts per minute"}, {"measurement": "3H-thymidine incorporation", "setting": "[1]; donor 2, 0.006 mM", "result": "262 ± 68", "unit": "Counts per minute"}, {"measurement": "3H-thymidine incorporation", "setting": "[1]; donor 2, 0.025 mM", "result": "273 ± 122", "unit": "Counts per minute"}, {"measurement": "3H-thymidine incorporation", "setting": "[1]; donor 2, 0.050 mM", "result": "257 ± 67", "unit": "Counts per minute"}, {"measurement": "3H-thymidine incorporation", "setting": "[1]; donor 3, 0.006 mM", "result": "266 ± 42", "unit": "Counts per minute"}, {"measurement": "3H-thymidine incorporation", "setting": "[1]; donor 3, 0.025 mM", "result": "252 ± 112", "unit": "Counts per minute"}, {"measurement": "3H-thymidine incorporation", "setting": "[1]; donor 3, 0.050 mM", "result": "180 ± 37", "unit": "Counts per minute"}, {"measurement": "3H-thymidine incorporation", "setting": "[1]; donor 4, 0.006 mM", "result": "246 ± 61", "unit": "Counts per minute"}, {"measurement": "3H-thymidine incorporation", "setting": "[1]; donor 4, 0.025 mM", "result": "237 ± 55", "unit": "Counts per minute"}, {"measurement": "3H-thymidine incorporation", "setting": "[1]; donor 4, 0.050 mM", "result": "240 ± 35", "unit": "Counts per minute"}, {"measurement": "3H-thymidine incorporation", "setting": "[1]; donor 5, 0.006 mM", "result": "238 ± 63", "unit": "Counts per minute"}, {"measurement": "3H-thymidine incorporation", "setting": "[1]; donor 5, 0.025 mM", "result": "121 ± 55", "unit": "Counts per minute"}, {"measurement": "3H-thymidine incorporation", "setting": "[1]; donor 5, 0.050 mM", "result": "841 ± 310", "unit": "Counts per minute"}, {"measurement": "3H-thymidine incorporation", "setting": "[1]; donor 5, 0.2 mM", "result": "277 ± 51", "unit": "Counts per minute"}, {"measurement": "3H-thymidine incorporation", "setting": "[1]; donor 5, 0.4 mM", "result": "165 ± 64", "unit": "Counts per minute"}, {"measurement": "3H-thymidine incorporation", "setting": "[1]; donor 6, 0.006 mM", "result": "486 ± 51", "unit": "Counts per minute"}, {"measurement": "3H-thymidine incorporation", "setting": "[1]; donor 6, 0.025 mM", "result": "508 ± 140", "unit": "Counts per minute"}, {"measurement": "3H-thymidine incorporation", "setting": "[1]; donor 6, 0.050 mM", "result": "650 ± 130", "unit": "Counts per minute"}, {"measurement": "3H-thymidine incorporation", "setting": "[1]; donor 6, 0.2 mM", "result": "620 ± 322", "unit": "Counts per minute"}, {"measurement": "3H-thymidine incorporation", "setting": "[1]; donor 6, 0.4 mM", "result": "395 ± 22", "unit": "Counts per minute"}, {"measurement": "3H-thymidine incorporation", "setting": "[1]; donor 7, 0.006 mM", "result": "1133 ± 257", "unit": "Counts per minute"}, {"measurement": "3H-thymidine incorporation", "setting": "[1]; donor 7, 0.025 mM", "result": "1667 ± 254", "unit": "Counts per minute"}, {"measurement": "3H-thymidine incorporation", "setting": "[1]; donor 7, 0.050 mM", "result": "772 ± 137", "unit": "Counts per minute"}, {"measurement": "3H-thymidine incorporation", "setting": "[1]; donor 7, 0.2 mM", "result": "657 ± 137", "unit": "Counts per minute"}, {"measurement": "3H-thymidine incorporation", "setting": "[1]; donor 7, 0.4 mM", "result": "702 ± 189", "unit": "Counts per minute"}, {"measurement": "suppression of SAC induced B cell proliferation", "setting": "[2]", "result": "slight suppression of B cell proliferation in some cases"}, {"measurement": "3H-thymidine incorporation", "setting": "[2]; SAC 1:100, 0.0125 mM", "result": "31582 ± 5535"}, {"measurement": "3H-thymidine incorporation", "setting": "[2]; SAC 1:100, 0.025 mM", "result": "30876 ± 1757"}, {"measurement": "3H-thymidine incorporation", "setting": "[2]; SAC 1:100, 0.05 mM", "result": "31036 ± 2225"}, {"measurement": "3H-thymidine incorporation", "setting": "[2]; SAC 1:100, 0.6 mM", "result": "31549 ± 1496"}, {"measurement": "3H-thymidine incorporation", "setting": "[2]; SAC 1:1000, 0.0125 mM", "result": "18079 ± 829"}, {"measurement": "3H-thymidine incorporation", "setting": "[2]; SAC 1:1000, 0.025 mM", "result": "18897 ± 1334"}, {"measurement": "3H-thymidine incorporation", "setting": "[2]; SAC 1:1000, 0.05 mM", "result": "17240 ± 1634"}, {"measurement": "3H-thymidine incorporation", "setting": "[2]; SAC 1:1000, 0.2 mM", "result": "16618 ± 2378"}, {"measurement": "augmenting effect on SAC induced B cell proliferation", "setting": "[2]; listed as 6-Amino-(2-deoxy-α-D-erythro-pentofuranosyl)-imidazo[4,5,-C]pyridin-4-one", "result": "neither an effect on Staphylococcus aureus cowan induced B cell proliferation; also recorded: no augmenting effect"}, {"measurement": "in vitro antiviral activity", "setting": "[3]", "result": "limited in vitro antiviral activity"}]}]}
